Results: paper PMC9305623, “Next generation GLP-1/GIP/glucagon triple agonists normalize body weight in obese mice” (Molecular Metabolism, 2022)
*1 amine or outer side, *2 acyl side, *3 side chain or, on linkers, in order; H or OH if unused. Where a SMILES comes first, the peptide text is derived from it. Side-chain parts run from the residue outwards. [ ]: non-standard residue; d: D form. The star is where a group is joined. C20 diacid = O=C(O)CCCCCCCCCCCCCCCCCCC(=O)*; γGlu = O=C(O)[C@H](CCC(=O)[*:2])N[*:1]; εLys = N[C@@H](CCCCN[*:1])C(=O)[*:2]; Aib = CC(C)(N)C(=O)O

Experiments:
hGIP Receptor = target: T1, hGIP Receptor (Homo sapiens, UniProt P48546); test: Receptor activation: cAMP production by CRE-luciferase reporter in stably transfected BHK cells; format: cell-based; conditions: compared to the native ligand for the receptor
T1 construct: expressed in transfected cells; host or cells: baby hamster kidney (BHK) cells, stably transfected, with CRE-firefly luciferase reporter
T1 sequence (P48546 22-466): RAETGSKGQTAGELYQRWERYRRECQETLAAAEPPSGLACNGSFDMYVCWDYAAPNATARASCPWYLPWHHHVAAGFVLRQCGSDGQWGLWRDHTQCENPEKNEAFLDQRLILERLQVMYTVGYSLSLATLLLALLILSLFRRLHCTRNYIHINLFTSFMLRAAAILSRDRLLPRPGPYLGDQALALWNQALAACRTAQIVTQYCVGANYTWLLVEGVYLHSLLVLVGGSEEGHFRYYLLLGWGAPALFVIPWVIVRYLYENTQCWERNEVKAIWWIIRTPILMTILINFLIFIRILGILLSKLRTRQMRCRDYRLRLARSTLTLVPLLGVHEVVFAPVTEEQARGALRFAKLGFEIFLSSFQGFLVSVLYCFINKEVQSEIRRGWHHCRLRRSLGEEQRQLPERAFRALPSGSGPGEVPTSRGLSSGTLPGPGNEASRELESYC
Procedure, shortened: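 BHK cells stably expressing one human receptor plus a CRE-firefly luciferase reporter were stimulated 3 h at 37 °C in phenol-red-free DMEM with 1% ovalbumin and 0.1% Pluronic F-68.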

in vivo = test: in vivo; design: species or system Göttingen minipigs; conditions: female, Göttingen, minipig, iv, 2 nmol/kg
Description: Studies were conducted in accordance with the Protection of Animals Act, the Act on Experiments on Animals, and the Standard Operating Procedures for Experiments on Animals at Novo Nordisk A/S. The experiments were performed under the supervision and approval of the Danish Government Animal Experiments Inspectorate and the Novo Nordisk Ethical Review Counsel. Female Göttingen minipigs (Ellegaard Göttingen Minipigs A/S), 7–14 months old and weighing 16–35 kg, were housed individually and fed once daily with a restricted SDS minipig diet (Special Diets Services). At least one week before the study, two permanent central venous catheters were implanted in the caudal vena cava of each animal. The animals were fasted for approximately 18 h before dosing and 4 h after dosing but had ad libitum access to water during the whole period. Test compounds dissolved to a concentration of 20–40 nmol/mL in a vehicle (pH 7.4) containing 0.025% polysorbate-20, 10 mM sodium phosphate, and 250 mM glycerol were administered via an intravenous injection through one catheter at a dose of 2 nmol/kg. Blood samples were collected in 8 mM aqueous EDTA for up to 14 days post dosing, preferably through the other catheter, then centrifuged at 4 °C and ∼2000g for 10 min. Plasma was isolated and immediately frozen until RP-HPLC/MS analysis. Individual plasma concentration–time profiles were analysed by a non-compartmental model in Phoenix WinNonLin software (Pharsight Inc.), and the resulting terminal half-lives were determined at the harmonic mean.

mGLP-1 Receptor = target: T2, mGLP-1 Receptor (Mus musculus, UniProt O35659); test: Receptor activation: cAMP production by CRE-luciferase reporter in stably transfected BHK cells; format: cell-based; conditions: relative to native ligand at mouse-derived receptor
T2 construct: expressed in transfected cells; host or cells: baby hamster kidney (BHK) cells, stably transfected, with CRE-firefly luciferase reporter
T2 sequence (O35659 22-463): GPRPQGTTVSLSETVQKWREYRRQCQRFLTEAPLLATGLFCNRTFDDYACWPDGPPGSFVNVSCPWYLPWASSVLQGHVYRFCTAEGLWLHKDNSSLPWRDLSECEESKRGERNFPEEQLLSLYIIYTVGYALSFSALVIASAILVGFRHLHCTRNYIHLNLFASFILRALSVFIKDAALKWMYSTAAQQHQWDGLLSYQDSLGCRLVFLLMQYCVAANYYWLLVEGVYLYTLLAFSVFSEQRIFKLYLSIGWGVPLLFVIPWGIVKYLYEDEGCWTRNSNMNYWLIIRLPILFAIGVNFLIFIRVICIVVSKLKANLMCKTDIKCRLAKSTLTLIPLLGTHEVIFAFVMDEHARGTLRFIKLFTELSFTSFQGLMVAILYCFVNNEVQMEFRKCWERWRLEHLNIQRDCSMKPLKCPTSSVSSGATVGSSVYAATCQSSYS
Description: Cyclic AMP (cAMP) production was assessed as a proxy for receptor activation using stably transfected baby hamster kidney (BHK) cell lines expressing the DNA for one individual receptor (GLP-1R, GIPR, GcgR; human- or mouse-specific sequence) and the DNA for the firefly luciferase reporter gene linked to the cAMP response element (CRE). The cells were kept in continuous culture at 37 °C and 5% CO2 in Dulbecco's Modified Eagle Medium (DMEM) supplemented with 10% heat-inactivated fetal bovine serum (HI-FBS), 300 μg/mL hygromycin, and 500 μg/mL G418; for cell lines expressing GIPR, the G418 concentration was lowered to 400 μg/mL. Cells were plated in a 96-well poly-D-lysine-coated plate at 5,000 cells per well in growth media and incubated overnight at 37 °C with 5% CO2. After the overnight incubation, the media was removed, the plate was washed once in Dulbecco's phosphase-buffered saline (DPBS), and 50 μL of assay buffer (DMEM without phenol red, 10 mM HEPES, 1x Glutamax, 1% ovalbumin, 0.1% Pluronic F-68) was added to each well. […] The assay plate was covered to protect reagent from light, shaken at 250 rpm at room temperature for 30 min, and read in a microtiter plate reader. EC50 values were calculated using Prism software (GraphPad) with the nonlinear regression log(agonist) vs. response. A minimum of two replicates were measured for each sample.

CC[C@H](C)[C@H](NC(=O)[C@H](CO)NC(=O)[C@H](Cc1ccc(O)cc1)NC(=O)[C@H](CC(=O)O)NC(=O)[C@H](CO)NC(=O)[C@@H](NC(=O)[C@H](Cc1ccccc1)NC(=O)[C@@H](NC(=O)CNC(=O)[C@H](Cc1c[nH]cn1)NC(=O)C(C)(C)NC(=O)[C@@H](N)Cc1c[nH]cn1)[C@@H](C)O)[C@@H](C)O)C(=O)N[C@@H](Cc1ccc(O)cc1)C(=O)N[C@@H](CC(C)C)C(=O)N[C@@H](CCC(=O)O)C(=O)N[C@@H](CCCCNC(=O)[C@@H](N)CCCCNC(=O)[C@@H](N)CCCCNC(=O)CC[C@H](NC(=O)CCCCCCCCCCCCCCCCCCC(=O)O)C(=O)O)C(=O)N[C@@H](CCCCN)C(=O)N[C@@H](Cc1ccc(O)cc1)C(=O)N[C@@H](C)C(=O)NC(C)(C)C(=O)N[C@@H](CCC(=O)O)C(=O)N[C@@H](Cc1ccccc1)C(=O)N[C@H](C(=O)N[C@@H](CCC(N)=O)C(=O)N[C@@H](Cc1c[nH]c2ccccc12)C(=O)N[C@@H](CC(C)C)C(=O)N[C@@H](CC(C)C)C(=O)N[C@@H](CCC(=O)O)C(=O)NCC(=O)NCC(=O)N1CCC[C@H]1C(=O)N[C@@H](CO)C(=O)N[C@@H](CO)C(=O)NCC(=O)N[C@@H](C)C(=O)N1CCC[C@H]1C(=O)N1CCC[C@H]1C(=O)N1CCC[C@H]1C(=O)N[C@@H](CO)C(N)=O)C(C)C [Compound 16] (H-H[Aib]HGTFTSDYSIYLEK([εLys-εLys-γGlu-C20 diacid])KYA[Aib]EFVQWLLEGGPSSGAPPPS-NH2)
hGIP Receptor Relative Potency % (hGIP Receptor): 67% | Vd (in vivo): 0.164 L/kg | clearance (in vivo): 1.5 mL/h/kg | half-life (in vivo): 75 h | mGLP-1 Receptor Relative Potency % (mGLP-1 Receptor): 142%
